Data reported in publication PMC7470070, “Discovery of N-(1-(3-fluorobenzoyl)-1H-indol-5-yl)pyrazine-2-carboxamide: a novel, selective, and competitive indole-based lead inhibitor for human monoamine oxidase B” (Journal of Enzyme Inhibition and Medicinal Chemistry, 2020).
Entries after “also recorded” stand apart in the source; their conditions may differ. Read-outs that look alike come from different tables or passages of the source.

Assays:
[1] = target: T1, Human recombinant MAO-B (hMAO-B) (Homo sapiens, UniProt P27338); assay: Monoamine oxidase enzyme assay (Amplex Red), MAO-B; assay type: biochemical; conditions: for inhibition at 10 µM: read-out: Inhibition percent of MAO-B; for IC50: as given in abstract; for SI (selectivity index), IC50 (MAO-A)/IC50 (MAO-B): selectivity for the MAO-B isoform
T1 construct: purchased Sigma-Aldrich (St. Louis, MO); host or cells: insect cells
T1 sequence (P27338 1-520): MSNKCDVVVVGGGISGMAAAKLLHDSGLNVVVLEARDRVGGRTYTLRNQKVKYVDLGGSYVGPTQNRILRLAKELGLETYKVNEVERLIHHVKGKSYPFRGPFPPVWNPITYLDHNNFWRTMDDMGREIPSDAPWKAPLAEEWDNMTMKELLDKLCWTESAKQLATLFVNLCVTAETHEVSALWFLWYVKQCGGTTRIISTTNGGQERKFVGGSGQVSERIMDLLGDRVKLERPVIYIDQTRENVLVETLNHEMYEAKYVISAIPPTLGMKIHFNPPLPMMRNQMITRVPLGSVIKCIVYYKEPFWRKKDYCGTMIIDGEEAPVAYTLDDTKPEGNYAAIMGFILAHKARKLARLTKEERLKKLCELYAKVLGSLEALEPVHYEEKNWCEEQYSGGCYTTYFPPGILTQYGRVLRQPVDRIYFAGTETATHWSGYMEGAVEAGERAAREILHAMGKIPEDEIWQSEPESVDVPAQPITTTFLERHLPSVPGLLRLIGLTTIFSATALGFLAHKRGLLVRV
Procedure: (§1) The inhibitory activity of MAO-A, B enzyme of the compounds was evaluated based on previously described method. The MAO activity was measured in relative fluorescence units (RFUs) evoked by peroxidase-catalyzed oxidation of Amplex Red® to resorufin, in which H2O2 generated by MAO reaction was used as the electron donor. Human recombinant MAO-A (hMAO-A) and MAO-B (hMAO-B) enzyme expressed in insect cells were obtained from Sigma-Aldrich (St. Louis, MO). The 2 μL of test compound in DMSO (final concentration: 1 nM to 10 μM) was treated with 98 μL of hMAO enzyme solution in 50 mM sodium phosphate buffer (pH 7.4, final protein amounts: ∼1.25 μg protein/well for MAO-A and ∼2.5 μg protein/well for MAO-B) on 96-well black plate and incubated for 15 min at 37 °C. Then, 100 μL of reaction working solution which is mixed solution of 400 μM Amplex Red® (Cayman, Ann Arbor, MI, final concentration: 200 μM), 2 U/mL horseradish peroxidase (Sigma-Aldrich, St. Louis, MO, final concentration: 1 U/mL) and 2 mM substrate (p-tyramine for MAO-A, benzylamine for MAO-B, Sigma-Aldrich, St. Louis, MO, final concentration: 1 mM) in 50 mM sodium phosphate buffer (pH 7.4) were added and incubated for 20 min at 37 °C in the dark. The fluorescent intensity was quantified using a microplate reader (SpectraMax®i3, Molecular Devices, Sunnyvale, CA) with an excitation at 545 nm and an emission at 590 nm. The 50% inhibitory concentrations (IC50) of compounds were determined as the mean ± SEM in triplicate from the dose–response inhibition curves using SigmaPlot® 13.0 (Palo Alto, CA).
The target compounds 4a−l were biologically evaluated for their potential inhibitory activities over human MAO-B recombinant enzyme. The enzyme inhibition assay of the tested compounds was conducted using Amplex® Red reagent technology which offers quantitative enzyme activity sensitive detection with extended dynamic range compared to classic colorimetric oxidase assays in addition to its advantage of the fluorescence emission outside the range of compound autofluorescence (if any). Since Amplex® Red reagent is a colourless substrate able to react with H2O2 with a 1:1 stoichiometry to yield highly fluorescent resorufin, the elicited inhibitory activities of the tested compounds over MAO-B were evaluated via spectrophotometrical measurement and the fluorescence rate of the resorufin dye formation was detected. As mentioned previously, all the target compounds were designed to incorporate the same amide moiety in VI and VII at position 5 of the indole scaffold connecting one of three different heteroaromatic cycles with the indole core which is substituted with either aromatic or aliphatic moiety. […] In addition, we noticed that the benzyl and benzoyl moieties, bearing the electron-withdrawing 3- or 4-fluoro groups in 4a−f, exerted better inhibition than the pyridylmethyl substituent (4g−i). […] It is also noteworthy to mention that the three different heteroaryl cycles incorporated in our design (pyridazine, pyrazine, and pyridine) were represented in each of the last three compounds.
The inhibitory potencies (IC50 values) of compounds producing inhibition of MAO-B activity by more than 50% were determined using five doses assay with 10, 1, 0.1, 0.01, and 0.001 μM concentrations of the tested compounds. Consequently, analogues 4b and 4e were further evaluated to determine their IC50 over MAO-B in triplicate from the dose response inhibition curves using Sigma-Plot software version 13.0 as indicated in Figure 3.

[2] = target: T2, Human recombinant MAO-A (hMAO-A) (Homo sapiens, UniProt P21397); assay: Monoamine oxidase enzyme assay (Amplex Red), MAO-A selectivity assay; assay type: biochemical; conditions: for inhibition at 100 µM: single dose of 100 µM of compound
T2 construct: purchased Sigma-Aldrich (St. Louis, MO); host or cells: insect cells
T2 sequence (P21397 1-527): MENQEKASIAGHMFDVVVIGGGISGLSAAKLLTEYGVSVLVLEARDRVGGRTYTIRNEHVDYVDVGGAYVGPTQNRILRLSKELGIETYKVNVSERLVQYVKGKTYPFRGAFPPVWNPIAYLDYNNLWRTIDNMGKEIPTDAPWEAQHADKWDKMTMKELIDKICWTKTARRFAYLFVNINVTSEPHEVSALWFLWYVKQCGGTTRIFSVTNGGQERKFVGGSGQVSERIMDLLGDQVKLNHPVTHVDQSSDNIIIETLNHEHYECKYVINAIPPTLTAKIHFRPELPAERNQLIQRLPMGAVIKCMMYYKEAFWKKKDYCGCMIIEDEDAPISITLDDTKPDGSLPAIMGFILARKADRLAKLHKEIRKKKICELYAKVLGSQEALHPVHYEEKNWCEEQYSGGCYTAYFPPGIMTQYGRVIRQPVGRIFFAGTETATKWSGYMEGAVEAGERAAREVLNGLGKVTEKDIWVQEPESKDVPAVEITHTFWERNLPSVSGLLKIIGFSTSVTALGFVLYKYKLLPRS
Procedure: as §1
It is known that non-selective (MAO-A/B combined) inhibitors lead to several problems when taken concomitantly with tyramine-containing foods (such as cheese) since the drug's inhibition of MAO-A causes a dangerous elevation of serum tyramine levels, which can cause hypertensive symptoms. […] To calculate the selectivity index (SI: the selectivity for the MAO-B isoform given as the ratio of IC50 (MAO-A)/IC50 (MAO-B)), IC50 values of both compounds have been identified and found to be more than 100 µM. Consequently, the selectivity indices were calculated as illustrated in Table 2.

[3] = target: T3, hMAO-B enzyme (Homo sapiens, UniProt P27338); assay: Kinetic study of MAO-B inhibition mode (Michaelis-Menten, Lineweaver-Burk); assay type: biochemical
T3 construct: purchased Sigma-Aldrich (St. Louis, MO); host or cells: insect cells
T3 sequence (P27338 1-520): T1 sequence (P27338 1-520)
Procedure: The type of MAO-B inhibition of compound 4e was determined by the Michaelis–Menten kinetic study. The catalytic rates of hMAO-B enzyme in the absence or in the presence of three different concentrations (10, 30, and 100 nM) of compound 4e were measured at seven different concentrations of the benzylamine (0.065, 0.125, 0.25, 0.5, 1, 2, and 4 mM). The corresponding progression curves and the Lineweaver–Burk plots were generated using GraphPad Prism 7 (La Jolla, CA). The maximal velocity (Vmax), the Michaelis constant (Km), and the inhibition constant (Ki) were calculated using SigmaPlot® 13.0 (Palo Alto, CA).
Detailed substrate-dependent kinetic experiments were carried out to examine the mode of MAO-B inhibition of compound 4e. The initial rates of MAO-B inhibition in the absence and presence of 4e were measured at various concentrations of benzylamine, a selective substrate for MAO-B, and both Michaelis–Menten and the Lineweaver–Burk plots are depicted in Figure 4. The Lineweaver–Burk plots for three different concentration of 4e were linear and intersected at the y-axis.

[4] = system: human MAO-B; parameters: method as in PMID 24955776; conditions: cited from earlier work
[5] = system: MAO-A; parameters: method as in PMID 24955776; conditions: cited from earlier work
[6] = single dose of 10 µM of compound

Row | inhibition at 10 µM [1, 6] [%] | melting point [°C] | SMILES | other results
1 | 13.2 ± 3.32 | 212.6 to 213.1 | O=C(Nc1ccc2c(ccn2Cc2ccc(F)cc2)c1)c1ccnnc1 [4a, N-(1-(4-fluorobenzyl)-1H-indol-5-yl)pyridazine-4-carboxamide] | –
2 | – | – | O=C(Nc1ccc2c(ccn2Cc2ccc(F)cc2)c1)c1cnccn1 [4b, N-(1-(4-fluorobenzyl)-1H-indol-5-yl)pyrazine-2-carboxamide] | IC50 [2]: > 100000 nM; inhibition at 100 µM [2]: 12.9 ± 1.09%; IC50 [1]: 1650 nM; inhibition at 10 µM [1]: 88.49 ± 0.13%; SI (selectivity index), IC50 (MAO-A)/IC50 (MAO-B) [1]: >60
3 | 11.2 ± 0.24 | 200 to 200.4 | O=C(Nc1ccc2c(ccn2Cc2ccc(F)cc2)c1)c1cccnc1 [4c, N-(1-(4-fluorobenzyl)-1H-indol-5-yl)nicotinamide] | –
4 | 19.1 ± 0.47 | 196.7 to 196.9 | O=C(Nc1ccc2c(ccn2C(=O)c2cccc(F)c2)c1)c1ccnnc1 [4d, N-(1-(3-fluorobenzoyl)-1H-indol-5-yl)pyridazine-4-carboxamide] | –
5 | 66.4 ± 0.79 | 221.3 to 222.2 | O=C(Nc1ccc2c(ccn2C(=O)c2cccc(F)c2)c1)c1cnccn1 [4e, N-(1-(3-fluorobenzoyl)-1H-indol-5-yl)pyrazine-2-carboxamide] | IC50 [2]: > 100000 nM; inhibition at 100 µM [2]: 4.76 ± 0.59%; IC50 [1]: 780 nM; SI (selectivity index), IC50 (MAO-A)/IC50 (MAO-B) [1]: >120; Mode of MAO-B inhibition ([3]; Lineweaver-Burk plots intersected at the y-axis): competitive; also recorded: reversible; Ki ([3]; substrate benzylamine, 10, 30, 100 nM of 4e, read-out: Inhibition constant (Ki) MAO-B): 94.5 nM
6 | 30.29 ± 0.24 | 212.9 to 214.2 | O=C(Nc1ccc2c(ccn2C(=O)c2cccc(F)c2)c1)c1cccnc1 [4f, N-(1-(3-fluorobenzoyl)-1H-indol-5-yl)nicotinamide] | –
7 | 1.83 ± 0.75 | 141.8 to 143 | O=C(Nc1ccc2c(ccn2Cc2ccccn2)c1)c1ccnnc1 [4g, N-(1-(pyridin-2-ylmethyl)-1H-indol-5-yl)pyridazine-4-carboxamide] | –
8 | 2.38 ± 0.66 | 152 to 152.9 | O=C(Nc1ccc2c(ccn2Cc2ccccn2)c1)c1cnccn1 [4h, N-(1-(pyridin-2-ylmethyl)-1H-indol-5-yl)pyrazine-2-carboxamide] | –
9 | 1.81 ± 0.85 | 142.9 to 144.3 | O=C(Nc1ccc2c(ccn2Cc2ccccn2)c1)c1cccnc1 [4i, N-(1-(pyridin-2-ylmethyl)-1H-indol-5-yl)nicotinamide] | –
10 | 9.52 ± 0.61 | 181.1 to 182 | Cn1ccc2cc(NC(=O)c3ccnnc3)ccc21 [4j, N-(1-methyl-1H-indol-5-yl)pyridazine-4-carboxamide] | –
11 | 49.7 ± 0.68 | 172.5 to 174 | Cn1ccc2cc(NC(=O)c3cnccn3)ccc21 [4k, N-(1-methyl-1H-indol-5-yl)pyrazine-2-carboxamide] | –
12 | 11.6 | 164.2 to 164.9 | Cn1ccc2cc(NC(=O)c3cccnc3)ccc21 [4l, N-(1-methyl-1H-indol-5-yl)nicotinamide] | –
13 | – | – | O=C(Nc1ccc2[nH]ncc2c1)c1c(F)cccc1Cl [VII] | IC50 [4]: 3300 nM; IC50 [5]: > 10000 nM
14 | – | – | O=C(Nc1ccc2[nH]ncc2c1)c1cccc(Cl)c1Cl [VI] | IC50 [4]: 2590 nM; IC50 [5]: > 10000 nM
15 | – | – | Cn1cc(C(=O)Nc2ccc3[nH]ncc3c2)ccc1=O [V] | Activity over human MAO-B (in words) [4]: totally inactive; IC50 [4]: > 10000 nM; IC50 [5]: > 10000 nM
16 | – | – | C#CCN[C@@H]1CCc2ccccc21 [rasagiline] | SI (selectivity index) for MAO-B ([4]; calculated SI): > 50
